What was measured:
[1] = system: Lotus japonicus; assay: Rhizobium lotii on Lotus japonicus in vitro system, plant growth and nodule density; format: in vivo; settings: HYTLO1 0.07 μM, 6PP 0.002 μM, 4 weeks after seeding; for plant growth promotion effect of Rhizobia on Lotus japonicus: HA 0.001 μM in MS media; for nodule formation (number of nodules per cm of root): HA 0.001 μM, with R. loti
Experimental: Wt+Rhz=treatment with R. loti, Wt-Rhz without R. loti. (D) Growth measured after 4 weeks, in the absence (cont) or presence of Rhizoba R. loti ((+) Rhiz). The purified molecules were added to the sterile MS media and poured into Petri dishes. Data were recorded 4 weeks after seeding of L. japonicus.
FIG. 18. […] (HYT=HYTLO1 at 0.07 μM, 6PP at 0.002 μM, HA=Harzianic Acid at 0.001 μM). Wt=control with R. loti without metabolites. The purified molecules were added to the sterile MS media and poured into Petri dishes. Average number of nodules per cm of root are indicated. Data were recorded 4 weeks after seeding of L. japonicus.
In order to test the effect of HYTLO1, as well as of the secondary metabolites HA and 6PP on the growth promotion activity of Rhizobia, such as Rhizobium sp., on legumimosae plants, we used a standard Rhizobium lotii on Lotus japonicus in vitro system (Barbulova et al., 2005, Functional Plant Biology, 32:529-536). Plant growth and nodule density on the roots were scored four weeks after seeding by comparing untreated controls and the various treatments.

[2] = system: cucumber; assay: combined application of HYTLO1, HA and 6PP on cucumber seed germination and growth promotion; format: in vivo; parameters: Root length, increase % vs. Control / Plant fresh weight, increase % vs. Control / Plant dry weight, increase % vs. Control / plant height, increase % vs. Control: concentration or dose not given beside the values; settings: for Plant dry weight / Root length (cm) / Plant fresh weight / plant height (cm): 30 days after seed coating; for Plant dry weight: SD +− 1.3 g; for Root length (cm): SD +− 2.1 cm; for Plant fresh weight: SD +− 2.5 g; for plant height (cm): drench 10^−7M 6PP and HA, 10^−8M HYTLO1, half or one third dose in combinations, SD +− 2.5 cm; for Seed germination (24 h): coated cucumber seeds on humid filter paper, SD +− 9%
Experimental: Tested metabolites include 6PP and Harzianic Acid, and experiments were performed on seed germination, stem or root elongation as well fresh/dry weight. The results shown in Table 1 were obtained by using cucumber seeds coated with the solutions of the tested compounds, that were then transferred in Petri dishes and left to germinate on filter humid paper. First seed germination was evaluated, then the germinated seedlings were transplanted into pots containing sterilised soil. Other two treatments with the purified molecules were performed at 10 days interval, by drenching the soil with the solutions at the final concentrations of 10^−7M for 6PP and HA, and 10^−8M for HYTLO1. In two-compounds application, half dose of each molecule was used. In three-compound applications, one third of the dose of each molecules was used. Each treatments consisted of 8 plants. Results were collected 30 days after seed coating. Control was produced by adding water instead of the molecule solutions. The effect of the minimal amounts of solvents eventually contained in HA and 6PP solution was preliminary tested, with no differences observed in comparison to water control. The results shown in Table 1 that all of the three tested molecules have a significant beneficial effect on seed germination and plant growth, and that they can be synergistically combined for enhanced effectiveness.

Row | SMILES | plant growth promotion effect of Rhizobia on Lotus japonicus [1] | nodule formation (number of nodules per cm of root) [1] | Plant dry weight [2] [g] | Root length (cm) [2] [cm] | Plant fresh weight [2] [g] | plant height (cm) [2] [cm] | Seed germination (24 h) [2] [%] | Seed germination (24 h), increase % vs. Control ([2]; vs water control) | Plant dry weight, increase % vs. Control ([2]; vs water control, 30 days) [%] | Plant fresh weight, increase % vs. Control ([2]; vs water control, 30 days) [%] | Root length, increase % vs. Control ([2]; vs water control, 30 days) [%] | plant height, increase % vs. Control ([2]; vs water control, 30 days) [%]
1 | CCC/C=C/C=C/C(O)=C1/C(=O)C(CC(O)(C(=O)O)C(C)C)N(C)C1=O (centres unmarked) [HA, Harzianic acid] | Enhancement of the effect of Rhizobium lotii | Enhancement of nodule formation | 7.6 | 13.6 | 23.36 | 27.4 | 75 | +25% | 46.1 | 30.1 | 10.7 | 8.4
2 | CCCCCc1cccc(=O)o1 [6PP, 6-Pentyl-α-pyrone] | Enhancement of the effect of Rhizobium lotii | Enhancement of nodule formation | 7.1 | 17.6 | 22.04 | 21.8 | 75 | +25% | 42.3 | 25.9 | 31.1 | 

Source: patent US10875898B2, “Bioactive protein, use thereof and method for its production” (Koppert B.V., priority 2014, dated 2020)
